Assay results reported in the supplement of paper PMC10307832.

Experiments:
Experiment in all cases: relative viability (nuclei count vs DMSO), 5 days (fraction); higher = more cells survive
XMD13-2 + Bortezomib = compound: C1CC1C(=O)NC2=NNC3=C2C=CC(=C3)C4=CC(=CC=C4)C(=O)NC5CC5 [XMD13-2] + CC(C)C[C@H](NC(=O)[C@H](Cc1ccccc1)NC(=O)c1cnccn1)B(O)O [Bortezomib] (partner 0.002 µM)
Method in brief: (§1)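 Lung cancer cell lines in 1536-well plates were dosed by pin tool the day after seeding, either with one drug alone or with a fixed anchor-drug dose plus five library-drug doses (not always all listed) in √10 steps. After 5 days, cells were fixed and their nuclei stained in one step (final 0.05% Triton X-100, 1% formaldehyde, 1 ug/ml Hoechst), then counted on 4× images. Relative viability is the nuclei count in treated wells divided by that in vehicle wells. Values are medians of duplicate plates.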

XMD13-2 + Pemetrexed = compound: C1CC1C(=O)NC2=NNC3=C2C=CC(=C3)C4=CC(=CC=C4)C(=O)NC5CC5 [XMD13-2] + Nc1nc2[nH]cc(CCc3ccc(C(=O)N[C@@H](CCC(=O)O)C(=O)O)cc3)c2c(=O)[nH]1 [Pemetrexed] (partner 0.2 µM)
Method in brief: as §1

ALW-II-49-7 + Alpelisib = compound: Cc1ccc(C(=O)Nc2cccc(C(F)(F)F)c2)cc1Nc1cncc(C(N)=O)c1 [ALW-II-49-7] + Cc1nc(NC(=O)N2CCC[C@H]2C(N)=O)sc1-c1ccnc(C(C)(C)C(F)(F)F)c1 [Alpelisib] (partner 2 µM)
Method in brief: as §1

Dasatinib + Luminespib = compound: Cc1nc(Nc2ncc(C(=O)Nc3c(C)cccc3Cl)s2)cc(N2CCN(CCO)CC2)n1 [Dasatinib] + CCNC(=O)c1noc(-c2cc(C(C)C)c(O)cc2O)c1-c1ccc(CN2CCOCC2)cc1 [Luminespib] (partner 0.01 µM)
Method in brief: as §1

Cell Line	relative viability (XMD13-2 + Bortezomib; first compound 0.05 µM)	relative viability (XMD13-2 + Bortezomib; first compound 0.1581 µM)	relative viability (XMD13-2 + Bortezomib; first compound 0.5 µM)	relative viability (XMD13-2 + Bortezomib; first compound 1.581 µM)	relative viability (XMD13-2 + Bortezomib; first compound 5 µM)	relative viability (XMD13-2 + Pemetrexed; first compound 0.05 µM)	relative viability (XMD13-2 + Pemetrexed; first compound 0.1581 µM)	relative viability (XMD13-2 + Pemetrexed; first compound 0.5 µM)	relative viability (XMD13-2 + Pemetrexed; first compound 1.581 µM)	relative viability (XMD13-2 + Pemetrexed; first compound 5 µM)	relative viability (ALW-II-49-7 + Alpelisib; first compound 0.08 µM)	relative viability (ALW-II-49-7 + Alpelisib; first compound 0.253 µM)	relative viability (ALW-II-49-7 + Alpelisib; first compound 0.8 µM)	relative viability (ALW-II-49-7 + Alpelisib; first compound 2.53 µM)	relative viability (ALW-II-49-7 + Alpelisib; first compound 8 µM)	relative viability (Dasatinib + Luminespib; first compound 0.005 µM)	relative viability (Dasatinib + Luminespib; first compound 0.01581 µM)	relative viability (Dasatinib + Luminespib; first compound 0.05 µM)	relative viability (Dasatinib + Luminespib; first compound 0.1581 µM)	relative viability (Dasatinib + Luminespib; first compound 0.5 µM)
NCI-H1993	1.42	1.08	1.02	0.972	1.04	0.62	0.619	0.613	0.643	0.555	0.691	0.644	0.671	0.72	0.688	0.883	0.598	0.971	0.432	0.543
NCI-H647	1.59	1.16	1.29	1.11	0.549	0.173	0.168	0.179	0.164	0.134	0.769	1.13	1.19	0.882	0.557	0.141	0.0794	0.137	0.117	0.0952
NCI-H460	1.38	1.09	1.15	1.18	1.34	0.0636	0.0622	0.0651	0.0612	0.0633	0.513	0.542	0.323	0.453	0.395	0.0311	0.031	0.0288	0.02	0.0207
EMC-BAC-2	1.17	1.04	1.12	1.07	0.923	0.42	0.451	0.431	0.457	0.494	0.843	0.703	0.758	0.715	0.645	0.978	0.93	0.942	0.558	0.44
